ChEMBL document CHEMBL3352667, “Anti-tumor activity of novel biisoquinoline derivatives against breast cancers” (Bioorg Med Chem Lett, 2014)
Calls of active or inactive are those of the source. No cut-off for these calls is given here.

What was measured:
Format in all cases: functional, cell-based
[1] = tested on: MCF7; experiment: Cytotoxicity against human MCF7 cells assessed as growth inhibition after 48 hrs by methylene blue staining-based assay; conditions: MCF7, 48 h
[2] = tested on: BT-474; experiment: Cytotoxicity against human BT474 cells assessed as growth inhibition after 48 hrs by methylene blue staining-based assay; conditions: BT-474, 48 h
[3] = tested on: T47D; experiment: Cytotoxicity against human T47D cells assessed as growth inhibition after 48 hrs by methylene blue staining-based assay
[4] = tested on: MDA-MB-468; experiment: Cytotoxicity against human MDA-MB-468 cells assessed as growth inhibition after 48 hrs by methylene blue staining-based assay; conditions: MDA-MB-468, 48 h
[5] = tested on: MDA-MB-231; experiment: Cytotoxicity against human MDA-MB-231 cells assessed as growth inhibition after 48 hrs by methylene blue staining-based assay; conditions: for IC50: MDA-MB-231, 48 h

| Compound | IC50 [1] [µM] | IC50 [2] [µM] | IC50 [3] [µM] | IC50 [4] [µM] | IC50 [5] [µM] | Activity [5] |
| --- | --- | --- | --- | --- | --- | --- |
| COc1ccc2c(c1OC)CCn1c[n+]3c(c1-2)-c1ccc(OC)c(OC)c1CC3 | 7.9 | 0.7 | 13.5 | 2.1 | 18.2 | – |
| COc1ccc2c(c1OC)C(=O)O[C@@H]2[C@H]1c2c(cc3c(c2OC)OCO3)CCN1C [NOSCAPINE] | 57 | – | – | – | 64 | – |
| COc1ccc2c(c1)CCn1c[n+]3c(c1-2)-c1ccc(OC)cc1CC3 | 1.3 | 0.3 | 1 | 1.8 | 3.9 | – |
| COc1ccc(CCNC(=O)C(=O)NCCc2ccc(OC)c(OC)c2)cc1OC | – | – | – | – | 45 | – |
| COc1cc2c(c(OC)c1OC)CCn1c[n+]3c(c1-2)-c1cc(OC)c(OC)c(OC)c1CC3 | – | – | – | – | – | inactive |
| COc1cc2c(cc1OC)-c1c3[n+](cn1CC2)CCc1cc(OC)c(OC)cc1-3 | 35 | 3.1 | 34 | 2.6 | 19 | – |
| COc1cc2c(cc1OC)C(C1=NCCc3cc(OC)c(OC)cc31)=NCC2 | – | – | – | – | – | inactive |
